Laboratory results as given in US8609810B2, “Methylglyoxal-scavenging compounds and their use for the prevention and treatment of pain and/or hyperalgesia” (Ruprecht-Karls-Universitat Heidelberg, priority 2009, dated 2013).
Each block holds one compound with its values, some of them ahead of it. Where no end group is shown, it is not given here.

Legend:
[1] = tested on: healthy wild-type mice; test: Exogenous methylglyoxal induces thermal hyperalgesia in vivo (hot plate)
Method: Hyperalgesia was studied using the hot-plate assay with an electronically controlled hot-plate analgesia meter (Columbus Instructments, Columbus, Ohio) at 50° C.. Each mouse was removed from the hot plate when a jumping escape response occurred or hind paws were licked, or after a maximal cut-off time of 60 seconds. […] Three measurements were taken per animal at each of the specified time points and averaged. The difference in latency times between control and treated animals, was calculated as a measure of hyperalgesia. Healthy wild-type mice (Male; 10-12 weeks) were treated with various concentrations of methylglyoxal (0.7 μM-700 μM) by intravenous injection as 0.9% NaCl solution. Control groups were injected with 0.9% NaCl solution. After 3 hrs incubation time, hyperalgesia was assessed.

[2] = Plasma methylglyoxal measurement after i.v. injection of MG (HPLC); type: in vivo, mice; details: male, wild-type, mouse, iv, 5 μg MG i.v., within 10 min, read-out: plasma MG levels
Method: (B) 5 μg ([…]) MG was administered by i. v. injection as 0.9% NaCl solution to male healthy wild-type mice (10-12 weeks old) and MG-plasma concentrations were determined by HPLC at time point Oh, 10 min, 30 min, 1 h and 3 h. Data represent mean±SD (n=3 per time point).
(§1) The concentration of methylglyoxal in mouse plasma samples was determined by derivatization with 1,2-diamino-4,5-dimethoxybenezene using a previously described method. Blood samples were drawn into EDTA containing tubes from the retrobulbar vessels at time of sacrifice and centrifuged (2000 g; 5 mins). Plasma was removed and acidified with 10% TCA (0.1 ml). Samples were either analyzed immediately or stored at −80° C.

[3] = biological target: T1, glyoxalase-I (Mus musculus, UniProt Q9CPU0); test: In vivo inhibition of Glyoxalase I in healthy wild-type mice
T1 construct: Healthy wild-type mice (Male); from tissue
T1 sequence (Q9CPU0 2-184 limits assumed): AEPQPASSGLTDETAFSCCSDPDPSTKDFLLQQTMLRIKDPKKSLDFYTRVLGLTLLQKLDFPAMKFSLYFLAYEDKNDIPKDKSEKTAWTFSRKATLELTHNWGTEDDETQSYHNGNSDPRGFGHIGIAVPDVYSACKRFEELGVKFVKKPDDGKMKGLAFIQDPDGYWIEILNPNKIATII
Method: (A) Inhibition of Glyoxalase I by the cell permeable inhibitor S-p-Bromobenzylglutathione Cyclopentyl diester in male healthy wild-type mice (10-12 weeks old). Hyperalgesia was assessed by the hot plate assay at day 0 before application of the inhibitor. Thereafter, consecutive assessments of thermal hyperalgesia were made at selected time points (black circles), at which some mice also were sacrificed and plasma isolated for the determination of MG concentration (open circles). Data represent mean±SD (n=3 per time point). Different approaches were utilized to verify the hypothesized threshold-dependent effect of the MG/glyoxalase-system on hyperalgesia.
(§2) Hyperalgesia was studied using the hot-plate assay with an electronically controlled hot-plate analgesia meter (Columbus Instructments, Columbus, Ohio) at 50° C.. Each mouse was removed from the hot plate when a jumping escape response occurred or hind paws were licked, or after a maximal cut-off time of 60 seconds. […] Three measurements were taken per animal at each of the specified time points and averaged. The difference in latency times between control and treated animals, was calculated as a measure of hyperalgesia.
as §1
Healthy wild-type mice (Male; 10-12 weeks) were pretreated for 48 hrs with 50 μg/g (i.p) of the cell permeable Glyoxalase I inhibitor, S-p-Bromobenzylglutathioine Cyclopentyl diester. After 48 hrs, hyperalgesia was assessed. Mice were then treated every 2nd day for a period of 15 days, during which consecutive assessments of hyperalgesia were made. At selected time points, mice sacrificed, and plasma isolated for determination of methylglyoxal concentration.

[4] = tested on: methylglyoxal-induced hyperalgesia in healthy wild-type mice; test: Methylglyoxal-induced hyperalgesia, hot-plate assay (in vivo scavenging of methylglyoxal); details: 1 mg i.p., MG 70 μM, FIG. 6A
Method: Healthy wildtype mice (10-12 weeks), were injected with 1 mg GERP (≡1.096×1015 Arg residues) or control peptide GEAP; i.p. 30 mins prior to injection with methylglyoxal (MG; 70 μM). Hyperalgesia was assessed 3 hrs after i.p injection by hot-plate assay. Data represent mean±SEM (N=10). GERP reduced methylglyoxal-induced hyperalgesia by ca. 60% in healthy wildtype mice, whereas the control peptide had no effect, showing that scavanging of methylglyoxal reduced hyperalgesia.
as §2
A synthetic peptide, GERP001, containing ten arginine residues per molecule act as an effective in vivo scavenger of methylglyoxal was designed in house and synthesized (GenWay Biotech, Inc. San Diego, Calif., USA). […] Hyperalgesia was assessed 3 hrs after administration of methylglyoxal.

[5] = tested on: diabetes induced hyperalgesia in diabetic wild-type mice; test: Diabetes induced hyperalgesia, hot-plate assay in STZ-induced diabetic wild-type mice; type: in vivo
Method: Diabetic wildtype mice (Male; 18 wks) were injected with either 1 mg GERP or GEAP i.p. Following 1 day of treatment with either peptide, treatment was discontinued, after which consecutive measurements of hyperalgesia were performed to determine biological half-life of the peptide. This was determined to be ca. 80 hrs. Data represent the mean±SEM (N=10), ***P<0.0001, **P<0.001, *P<0.05, NSP>0.05 vs. GERP or GEAP control at respective time point; 000P<0.0001, NSP>0.05 vs. day 0.
Diabetes was induced by i.p. administration of STZ at 60 mg/kg, freshly dissolved in sterile sodium citrate (0.05M, pH4.5) on 6 subsequent days. Control animals received sodium citrate only. Diabetes was verified 16-25 days later by measurement of blood glucose levels in samples from the tail vein using ACCU-CHEK glucose sticks and a conventional Accutrend glucometer. In the first 2 weeks following the onset of diabetes, blood glucose was measured daily. If glucose levels occasionally recovered, an additional STZ injection was given on day 25-27. More than 90% of mice became diabetic within the first 4 weeks and were used throughout the experiment. As soon as blood glucose increased above 300 mg/dl, individual supplementation with 1-2 U Insulin Semilenta (40 U/ml) was started. Once glucose levels had stabilized, blood glucose was determined at least once a week for the first 2 months, and thereafter every second week. Tight blood glucose control kept individual blood glucose level stable throughout the experiments. At the end of the experiments, mice were sacrificed with CO2, and both sciatic nerves dissected, weighed and snap-frozen in liquid nitrogen.
as §2
To determine the effect of GERP on diabetes induced hyperalgesia, STZ-induced diabetic wild-type mice (Male; 18 wks) were injected intraperitioneal with either 1 mg of GERP001 or GEAP. After 24 hrs, hyperalgesia was assessed by hotplate assay.

- concentration at 10 min [2]: > 800 nM
Compound: CC(=O)C=O [MG, 2-oxo-propanal]
- persistence of MG-induced changes resulting in hyperalgesia ([1]; after MG application, data not shown): more than 3 hours
- plasma MG level needed for dose-dependent hyperalgesia (threshold concentration) ([1]; plasma MG at 15 min after MG application): exceeded 600 nM
- induction of heat hyperalgesia ([1]; systemic (i.v.) MG, 3 h after MG injection, hot plate): significant and dose-dependent induction of heat hyperalgesia

- glyoxalase-I enzymatic activity ([3]; 3 days after continuous inhibitor administration, injected every second day): fully inhibited
- MG plasma concentration ([3]; 6 days after initiation of treatment): exceeded 600 nM
- thermal hyperalgesia ([3]; 6 days after initiation of treatment, hot plate): significant thermal hyperalgesia
Compound: NC(CCC(=O)NC(CSCc1ccc(Br)cc1)C(=O)NCC(=O)OC1CCCC1)C(=O)OC1CCCC1 (stereo not drawn) [S-p-Bromobenzylglutathione Cyclopentyl diester]

Compound: GEAP: a control peptide in which the arginine residues were substituted for alanine (HHHHHHGGGGGEPGEPGEPGEPGEPGEPGEPGEPGEPGEP; GEAP motif containing peptide)
- effect on thermal hyperalgesia in MG-treated healthy wild-type mice [4]: no effect
- effect on thermal hyperalgesia in diabetic mice ([5]; mice after 8 weeks of diabetes with manifest hyperalgesia, 1 mg i.p., FIG. 6C): no effect

Compound: HHHHHHGGGGGERPGERPGERPGERPGERPGERPGERPGERPGERPGERP [GERP001]
- physiological / biological effective half-life ([5]; diabetic mice, 1 mg i.p., after treatment discontinued, regression analysis, linear decay model): ca. 80 hrs
- biological effective half-life (preliminary experiments) ([5]; preliminary experiments, data fitted to an exponential decay (R2=0.9734)): ca. 13 hrs
- half-life of the effect of a single injection ([5]; single injection (1 mg)): 80 h
